Reference: patent publication US20260294853A1, “COSMETIC COMPOSITION HAVING ANTI-INFLAMMATORY ACTIVITY” (LG CHEM, LTD., priority 2023, published 2026)

Tested on: Mouse macrophages
Assay: Evaluation of Reactive Nitrogen Species Inhibiting Ability (nitric oxide production in LPS-treated mouse macrophages, Griess reagent)
Assay type: cell-based
Details: under the treatment concentration of the 3-hydroxypropionic acid; LPS 1 μg/ml
Experimental: Mouse macrophages were divided into 1×10^6 cells in a 6-well plate and cultured for 24 hours, then treated with LPS (Lipopolysaccharide, concentration 1 μg/ml) solution, and treated with the 3-hydroxypropionic acid aqueous solution according to Preparation Example 1 at four concentrations (3HP concentration: 0 wt. %, 0.0125 wt. %, 0.025 wt. %, 0.05 wt. %), and then cultured again for 24 hours. Only the medium was then separated and centrifuged for 10 minutes to collect only the supernatant. The supernatant was mixed with Griess reagent (Sigma-Aldrich) reagent in a 1:1 ratio and reacted at room temperature, and then the absorbance (OD, wavelength 540 nm) was measured using a microplate reader. The measured value was substituted into the regression equation obtained from the standard curve prepared by reacting Griess reagent (Sigma-Aldrich) and NaNO2 in a 1:1 ratio to calculate the amount of nitric oxide (NO) produced. Here, the case in which neither the LPS solution nor the 3HP aqueous solution was treated was performed as a negative control group.

**Q.** With `O=C(O)CCO` [3HP, 3-Hydroxypropionic acid] as the molecule, how does the “effect of inhibiting the production of reactive nitrogen species” value read?
**A.** Its value is “the effect of inhibiting the production of reactive nitrogen species was exhibited”.
